Laboratory results from US8148391B2 (Cephalon, Inc., priority 2006, dated 2012).
Where two headings read alike, the source gives them in different places.

Assays:
[1] = target: T1, c-Met (cytoplasmic domain) (Homo sapiens, UniProt P08581); test: c-Met Kinase Assay (same methods as for ALK, with modifications); type: biochemical
T1 construct: 10 ng/mL c-Met (cytoplasmic domain, Invitrogen Corporation #PV3143); purchased Invitrogen Corporation PV3143
Procedure, shortened: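 IC50 values were fitted by variable-slope sigmoidal regression of percent inhibition against log compound concentration. Phosphorylation was read with Eu-N1 PT66 antibody after a 15 min, 37 °C reaction. The reaction was initiated with 10 ng/mL c-Met cytoplasmic domain on wells coated with 10 μg/mL PLC-γ in TBS.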

[2] = target: T2, baculovirus-expressed ALK (Homo sapiens, UniProt Q9UM73); test: ALK Kinase Assay (ELISA-type, time-resolved fluorescence); type: biochemical
T2 construct: host or cells: baculovirus expression system
Procedure, shortened: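 Wells were coated with phospholipase C-γ at 10 μg/mL in Tris-buffered saline. Adding 30 ng/ml enzyme started the reaction, which ran at 37° C for 15 minutes before Eu-N1 PT66 antibody detection. Percent inhibition versus log10 concentration gave IC50 by variable-slope fit.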

[3] = c-Met kinase inhibition, 1 μM ATP, read-out: cMet Activity
[4] = ALK kinase inhibition, 1 μM ATP, read-out: ALK Activity
[5] = 1 μM ATP (Km level), read-out: cMet Activity (c-Met Kinase Inhibition, IC50)
[6] = 1 μM ATP (Km level), read-out: ALK Activity (ALK Kinase Inhibition, IC50)

T2 sequence (Q9UM73 19-1620): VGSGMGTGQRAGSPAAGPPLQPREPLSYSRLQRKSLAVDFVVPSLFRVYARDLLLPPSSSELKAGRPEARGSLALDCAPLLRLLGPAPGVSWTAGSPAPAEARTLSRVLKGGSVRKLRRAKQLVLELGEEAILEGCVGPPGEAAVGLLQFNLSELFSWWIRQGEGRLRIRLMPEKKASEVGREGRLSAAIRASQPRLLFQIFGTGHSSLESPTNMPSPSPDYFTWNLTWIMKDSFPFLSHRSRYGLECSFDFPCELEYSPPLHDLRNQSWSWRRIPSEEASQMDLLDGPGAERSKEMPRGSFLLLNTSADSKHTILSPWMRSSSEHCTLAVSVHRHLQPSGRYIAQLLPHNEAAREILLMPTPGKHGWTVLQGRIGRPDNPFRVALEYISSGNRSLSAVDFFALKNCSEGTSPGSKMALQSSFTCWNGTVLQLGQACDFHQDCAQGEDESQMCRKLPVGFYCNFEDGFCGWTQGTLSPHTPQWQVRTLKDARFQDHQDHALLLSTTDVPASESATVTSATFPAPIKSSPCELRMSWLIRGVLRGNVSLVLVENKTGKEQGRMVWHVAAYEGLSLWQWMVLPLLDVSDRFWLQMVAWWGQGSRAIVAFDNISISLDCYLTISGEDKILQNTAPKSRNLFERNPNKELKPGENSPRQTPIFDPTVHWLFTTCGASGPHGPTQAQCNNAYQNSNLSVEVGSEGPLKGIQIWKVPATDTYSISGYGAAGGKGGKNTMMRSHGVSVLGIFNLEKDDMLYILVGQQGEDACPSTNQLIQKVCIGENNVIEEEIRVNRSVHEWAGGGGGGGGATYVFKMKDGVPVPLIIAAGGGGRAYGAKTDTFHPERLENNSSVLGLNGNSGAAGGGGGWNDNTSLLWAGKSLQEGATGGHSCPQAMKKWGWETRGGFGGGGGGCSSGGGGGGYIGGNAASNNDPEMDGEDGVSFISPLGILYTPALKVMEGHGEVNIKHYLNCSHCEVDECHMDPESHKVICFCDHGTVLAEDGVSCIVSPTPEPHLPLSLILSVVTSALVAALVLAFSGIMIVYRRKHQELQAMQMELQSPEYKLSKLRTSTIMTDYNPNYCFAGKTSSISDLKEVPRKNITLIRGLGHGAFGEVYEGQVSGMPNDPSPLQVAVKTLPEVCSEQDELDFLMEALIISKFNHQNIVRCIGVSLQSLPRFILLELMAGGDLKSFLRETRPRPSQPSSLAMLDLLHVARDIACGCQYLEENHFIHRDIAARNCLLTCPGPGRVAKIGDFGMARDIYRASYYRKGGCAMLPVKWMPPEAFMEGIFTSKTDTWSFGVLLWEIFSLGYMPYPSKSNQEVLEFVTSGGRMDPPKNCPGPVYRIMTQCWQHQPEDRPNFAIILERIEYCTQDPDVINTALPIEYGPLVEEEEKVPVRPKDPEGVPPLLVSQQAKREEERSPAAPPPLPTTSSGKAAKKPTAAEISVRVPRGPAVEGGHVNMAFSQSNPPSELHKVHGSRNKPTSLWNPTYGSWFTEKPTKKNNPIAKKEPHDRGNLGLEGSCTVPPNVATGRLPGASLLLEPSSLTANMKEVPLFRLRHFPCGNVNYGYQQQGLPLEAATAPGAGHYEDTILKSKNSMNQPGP
T1 sequence (P08581 956-1390 limits assumed): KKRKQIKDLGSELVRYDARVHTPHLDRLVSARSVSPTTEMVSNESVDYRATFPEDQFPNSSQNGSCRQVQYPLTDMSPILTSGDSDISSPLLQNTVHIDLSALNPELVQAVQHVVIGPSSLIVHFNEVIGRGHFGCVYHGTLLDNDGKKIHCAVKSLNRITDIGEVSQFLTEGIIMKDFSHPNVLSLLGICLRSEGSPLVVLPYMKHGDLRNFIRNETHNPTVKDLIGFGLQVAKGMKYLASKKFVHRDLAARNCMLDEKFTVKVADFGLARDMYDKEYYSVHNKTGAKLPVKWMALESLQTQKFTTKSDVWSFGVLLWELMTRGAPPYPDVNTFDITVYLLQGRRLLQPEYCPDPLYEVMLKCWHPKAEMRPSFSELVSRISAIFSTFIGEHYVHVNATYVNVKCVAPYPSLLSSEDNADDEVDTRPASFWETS

In the case of `COc1cc2c(cc1Nc1ncc(Cl)c(Nc3ccccc3S(=O)(=O)N(C)C)n1)CCN(CCO)CC2` [Example 1530, 2-{5-Chloro-2-[3-(2-hydroxy-ethyl)-8-methoxy-2,3,4,5-tetrahydro-1H-3-benzazepin-7-ylamino]-pyrimidin-4-ylamino}-N,N-dimethyl-benzenesulfonamide], the IC50 [1, 3] is reported as 1 to 10 µM and the IC50 [2, 4] is reported as under 0.1 µM.
`CNC(=O)CN1CCc2cc(Nc3ncc(Cl)c(Nc4ccc(N5CCN(C)CC5)cc4OC)n3)c(OC)cc2CC1` [Example 783, 2-(7-{5-Chloro-4-[2-methoxy-4-(4-methyl-piperazin-1-yl)-phenylamino]-pyrimidin-2-ylamino}-8-methoxy-1,2,4,5-tetrahydro-benzo[d]azepin-3-yl)-N-methyl-acetamide] was tested, and the IC50 [1, 5] was over 10 µM and the IC50 [2, 6] was under 0.1 µM.
Work on `CN1CCN(C2CCN(C3CCc4ccc(Nc5ncc(Cl)c(N[C@@H]6CCCC[C@H]6NS(C)(=O)=O)n5)cc4CC3)CC2)CC1` (stereo partly drawn) [Example 886, N-[(1R,2R)-2-(5-Chloro-2-{7-[4-(4-methyl-piperazin-1-yl)-piperidin-1-yl]-6,7,8,9-tetrahydro-5H-benzocyclohepten-2-ylamino}-pyrimidin-4-ylamino)-cyclohexyl]-methanesulfonamide] yielded an IC50 [1, 5] of 1 to 10 µM and an IC50 [2, 6] of under 0.1 µM.
In the case of `COCCNC1CCc2cc(Nc3ncc(Cl)c(Nc4ccccc4S(=O)(=O)N4CCCC4)n3)c(OC)cc2CC1` (stereo not drawn) [Example 1081, 5-Chloro-N*2*-[3-methoxy-7-(2-methoxy-ethylamino)-6,7,8,9-tetrahydro-5H-benzocyclohepten-2-yl]-N*4*-[2-(pyrrolidine-1-sulfonyl)-phenyl]-pyrimidine-2,4-diamine], the IC50 ([1]; 1 μM ATP (Km level), 10 ng/mL c-Met, read-out: cMet Activity (c-Met kinase inhibition, IC50 class)) is reported as 1 to 10 µM and the IC50 ([2]; 1 μM ATP (Km level), 30 ng/ml ALK, 37° C., 15 minutes, read-out: ALK Activity (ALK kinase inhibition, IC50 class)) is reported as under 0.1 µM.
`CS(=O)(=O)N[C@@H]1CCCC[C@H]1Nc1nc(Nc2ccc3c(c2)C2CCC(C3)N2)ncc1Cl` (stereo partly drawn) [Example 82, N-{(1R,2R)-2-[2-(12-Aza-tricyclo[7.2.1.0*2,7*]dodeca-2(7),3,5-trien-4-ylamino)-5-chloro-pyrimidin-4-ylamino]-cyclohexyl}-methanesulfonamide] was tested, and the IC50 ([1]; c-Met kinase inhibition, 1 μM ATP (Km level), read-out: cMet Activity) was 0.1 to 1 µM and the IC50 ([2]; ALK kinase inhibition, 1 μM ATP (Km level), read-out: ALK Activity) was 1 to 10 µM.
`CN([C@@H]1CCCC[C@H]1Nc1nc(Nc2ccc3c(c2)CCC(N2CCOCC2)CC3)ncc1Cl)S(C)(=O)=O` (mixture of isomers) [Example 1681, N-{(1R,2R)-2-[5-Chloro-2-(7-morpholin-4-yl-6,7,8,9-tetrahydro-5H-benzocyclohepten-2-ylamino)-pyrimidin-4-ylamino]-cyclohexyl}-N-methyl-methanesulfonamide] showed an IC50 [1, 3] of 1 to 10 µM and an IC50 [2, 4] of under 0.1 µM.
With `COc1cc2c(cc1Nc1ncc(Cl)c(Nc3ccc(N4CCOCC4)c(C)c3)n1)CCN(CC(=O)N(C)C)CC2` [Example 796, 2-{7-[5-Chloro-4-(3-methyl-4-morpholin-4-yl-phenylamino)-pyrimidin-2-ylamino]-8-methoxy-1,2,4,5-tetrahydro-benzo[d]azepin-3-yl}-N,N-dimethyl-acetamide] the IC50 [1, 5] was over 10 µM and the IC50 [2, 6] was under 0.1 µM.
Compound `COc1cc2c(cc1Nc1ncc(Cl)c(Nc3ccc(N(C)C)cc3S(=O)(=O)N(C)C)n1)CCN(CC(=O)N(C)C)CC2` [Example 833, 2-{7-[5-Chloro-4-(4-dimethylamino-2-dimethylsulfamoyl-phenylamino)-pyrimidin-2-ylamino]-8-methoxy-1,2,4,5-tetrahydro-benzo[d]azepin-3-yl}-N,N-dimethyl-acetamide] has an IC50 [1, 5] of over 10 µM and an IC50 [2, 6] of under 0.1 µM.
`COc1cc2c(cc1Nc1ncc(Cl)c(Nc3ccc(N4CCN(C)CC4)c(C)c3)n1)CCN(CC(C)(F)F)CC2` [Example 779, 5-Chloro-N*2*-[3-(2,2-difluoro-propyl)-8-methoxy-2,3,4,5-tetrahydro-1H-benzo[d]azepin-7-yl]-N*4*-[3-methyl-4-(4-methyl-piperazin-1-yl)-phenyl]-pyrimidine-2,4-diamine] was tested, and the IC50 [1, 5] was over 10 µM and the IC50 [2, 6] was under 0.1 µM.
